Experimental data taken from patent US8575382B2, “Low molecular weight pharmacological activity modulators” (“Ivy Pharm” LLC, priority 2009, dated 2013).
Like-named read-outs stand apart in the source and are kept apart here.

How the values were obtained:
[1] = test system: white rats with experimental diabetes; assay: Alloxan diabetes model; type: in vivo; conditions: for Cholesterol / Glucose / Total lipids / Triglycerides / β-lipoproteins: blood serum; for Body weight / Daily water consumption / Percent living: intragastrically once daily
Description: the alloxan diabetes model (reduction in the sugar content in the conditions of experimental chronic insulin insufficiency).
The alloxan diabetes model was used in another series of experiments. Alloxan diabetes was induced by a single subcutaneous injection of alloxan hydrate (Chemapol, Czech Republic) in a dose of 100 mg/kg in rats weighing 180-200 g which had fasted for 24 hours. The following groups of animals were studied: intact rats, untreated rats with diabetes, and animals with diabetes which were given thioctic acid daily for 1 month in a dose of 100 mg/kg, and thioctic acid in combination with the coordination compound in a dose of 10 mg/kg intragastrically once daily. Administration of the preparations commenced after 7 days, when the blood glucose level had roughly doubled as compared with the control. Each group contained 20 animals of both sexes. The general condition of the animals, the demand for food and water, the body weight, and the blood serum levels of glucose, total lipids, triglycerides, lipoproteins and cholesterol were recorded in the course of the experiment. […]

[2] = test system: mice with hyperglycemia caused by glucose; assay: Glucose loading test, blood sugar level; type: in vivo
Description: the glucose loading test (reduction in the sugar content in animals with hyperglycemia, caused by administration of glucose when fasting); Blood was obtained after 1 h by caudal vein puncture and the serum glucose level was determined by the ortho-toluidine method. Experiments to study the effect of the test substances on the blood glucose level were carried out on white mice weighing 17-18 g. The animals were deprived of food from the evening prior to the experiment. […] Immediately after injecting the glucose, the experimental animals were injected subcutaneously with a reference preparation (insulin in a dose of 0.3 units/kg). […] The blood glucose level was determined over a period of 4 hours with intervals of 1 hour.

[3] = test system: myocardium (30-minute LCA occlusion, 90-minute reperfusion)
Description: The experiments were performed on male Wistar rats weighing 200-300 g (RAMN Rappolovo Breeding Centre, St. Petersburg) and male C57B mice weighing 25-30 g (B&K, Sollentuna, Sweden). The animals were maintained in a 12/12-hour light regime and received standard feed and drinking water ad libitum. All the experiments were conducted in accordance with the “Handbook on the care and use of laboratory animals” (USA National Institute of Health publication No. 85-23) and “Handbook on the experimental (preclinical) study of new pharmacological substances”.
Initial anesthesia of rats was performed by intraperitoneal administration of etaminal sodium (Nembutal) in a single dose of 7 mg/100 g. The experiments were performed with artificial ventilation of the lungs AVL) via a tracheotomy (respiration rate—60/min, respiratory volume—3 ml/100 g of body weight). AVL was carried out with room air using a Vita-1 unit (PO Krasnogvardeyets, St. Petersburg). A breathing valve for small laboratory animals was used, allowing the dead space volume of the apparatus to be reduced and limiting accumulation of carbon dioxide in the flow system of the apparatus. Arterial pressure (AP) was measured during the experiment using a miniature pressure sensor (Baxter, USA) via a heparinized catheter inserted into the left common carotid artery. A median skin incision was made in the neck, with subsequent blunt separation of the tissues with forceps, for access to the trachea and carotid artery. An electrocardiogram (ECG) was recorded in the course of the experiment (Kardiotekhnika-EKG-8, ZAO Inkart, St. Petersburg) with standard leads, using subcutaneous needle electrodes 2 mm in diameter and 25 mm long. At the start of the experiment, the left femoral vein was catheterized for intravenous infusion of Nembutal with the object of maintaining anesthesia and also for the administration of test preparations and, at the end of the experiment, Evans blue.
A previously described method was used to model ischemia-reperfusion of the myocardium. The heart was accessed via a thoracotomy in the fourth intercostal on the left. An L-shaped skin incision was made first, then the large and small pectoral muscles were separated layer by layer with an electrocoagulator, after which the intercostal muscles were separated and the pleura was exposed. The pericardium was then opened by a blunt method and, using the medial edge of the auricula of the left atrium on the left, and the cone of the pulmonary artery on the right, for guidance the location of the common trunk of the LCA was determined, and a polypropylene ligature for this was placed with the aid of an atraumatic needle (6-O, Cardiopoint, CV-301). Removal of the heart from the wound was avoided since, apart from causing mechanical trauma to the heart, such a manipulation inevitably leads to serious disturbances to the hemodynamics.
An occluder was formed in order to create reversible ischemia of the myocardium: the ends of the ligature surrounding the coronary artery were led into the interior of a polyethylene tube 1 mm in diameter and 5-6 cm long (PE 40), after which occlusion of the left coronary artery (LCA) was achieved by moving the tube towards the heart, and reperfusion by moving it in the opposite direction. A clamp was applied to the tube with the object of maintaining occlusion for 30 minutes. The animals were located on a thermostatted operating table during the experiment; during this time, the body temperature of the animal was maintained in the range 37.5±0.5° C.
30-minute occlusion of the LCA with subsequent 90-minute reperfusion was used to create irreversible ischemic-reperfusion damage to the myocardium, which is a test for assessing cardioprotective effects.

Question: With O=C(O)CCCCC1CCSS1 (stereo not shown) [Thioctic acid, thioctic acid] as the molecule, how does the Cholesterol ([1]; 14 days) read?
Answer: The Cholesterol was 2.4 ± 0.2 mmol/L.

Question: What about the Glucose ([1]; 14 days) of the same molecule?
Answer: The Glucose was 5.2 ± 0.2 mmol/L.

Question: What about the Total lipids ([1]; 14 days) of the same molecule?
Answer: Its Total lipids is 10.4 ± 0.5 g/L.

Question: What about the Triglycerides ([1]; 14 days) of the same molecule?
Answer: Its Triglycerides is 2.3 ± 0.2 mmol/L.

Question: What about the β-lipoproteins ([1]; 14 days) of the same molecule?
Answer: The β-lipoproteins was 2.1 ± 0.2 g/L.

Question: What about the Body weight ([1]; 14 days) of the same molecule?
Answer: The Body weight was 180 ± 10 g.

Question: And the Daily water consumption ([1]; 14 days)?
Answer: The Daily water consumption was 25 ± 5.

Question: What about the Percent living ([1]; 14 days) of the same molecule?
Answer: The Percent living was 100%.

Question: What about the Cholesterol ([1]; 20 days) of the same molecule?
Answer: The Cholesterol was 1.4 ± 0.2 mmol/L.

Question: What about the Glucose ([1]; 20 days) of the same molecule?
Answer: The Glucose was 4.8 ± 0.1 mmol/L.

Question: And the Total lipids ([1]; 20 days)?
Answer: The Total lipids was 10.2 ± 0.3 g/L.

Question: What about the Triglycerides ([1]; 20 days) of the same molecule?
Answer: Its Triglycerides is 1.5 ± 0.2 mmol/L.

Question: And the β-lipoproteins ([1]; 20 days)?
Answer: Its β-lipoproteins is 2.1 ± 0.3 g/L.

Question: And the Body weight ([1]; 20 days)?
Answer: The Body weight was 185 ± 10 g.

Question: And the Daily water consumption ([1]; 20 days)?
Answer: Its Daily water consumption is 22 ± 5.

Question: What about the Percent living ([1]; 20 days) of the same molecule?
Answer: The Percent living was 100%.

Question: And the Cholesterol ([1]; 30 days)?
Answer: Its Cholesterol is 1.4 ± 0.1 mmol/L.

Question: And the Glucose ([1]; 30 days)?
Answer: The Glucose was 4.6 ± 0.2 mmol/L.

Question: What about the Total lipids ([1]; 30 days) of the same molecule?
Answer: The Total lipids was 9.5 ± 0.2 g/L.

Question: What about the Triglycerides ([1]; 30 days) of the same molecule?
Answer: The Triglycerides was 1.4 ± 0.2 mmol/L.

Question: What about the β-lipoproteins ([1]; 30 days) of the same molecule?
Answer: The β-lipoproteins was 2.1 ± 0.3 g/L.

Question: And the Body weight ([1]; 30 days)?
Answer: Its Body weight is 195 ± 10 g.

Question: And the Daily water consumption ([1]; 30 days)?
Answer: The Daily water consumption was 20 ± 3.

Question: What about the Percent living ([1]; 30 days) of the same molecule?
Answer: Its Percent living is 100%.

Question: What about the Blood sugar level ([2]; 5.5 mg/kg intramuscularly, 1 hour) of the same molecule?
Answer: Its Blood sugar level is 4.3 ± 0.2 mmol/L.

Question: What about the Blood sugar level ([2]; 5.5 mg/kg intramuscularly, 2 hours) of the same molecule?
Answer: The Blood sugar level was 4.0 ± 0.2 mmol/L.

Question: What about the Blood sugar level ([2]; 5.5 mg/kg intramuscularly, 3 hours) of the same molecule?
Answer: The Blood sugar level was 4.4 ± 0.3 mmol/L.

Question: And the Blood sugar level ([2]; 5.5 mg/kg intramuscularly, 4 hours)?
Answer: The Blood sugar level was 4.1 ± 0.1 mmol/L.

Question: What about the Blood sugar level ([2]; 11 mg/kg intramuscularly, 1 hour) of the same molecule?
Answer: The Blood sugar level was 4.5 ± 0.2 mmol/L.

Question: And the Blood sugar level ([2]; 11 mg/kg intramuscularly, 2 hours)?
Answer: The Blood sugar level was 4.2 ± 0.2 mmol/L.

Question: And the Blood sugar level ([2]; 11 mg/kg intramuscularly, 3 hours)?
Answer: The Blood sugar level was 4.2 ± 0.3 mmol/L.

Question: And the Blood sugar level ([2]; 11 mg/kg intramuscularly, 4 hours)?
Answer: The Blood sugar level was 4.2 ± 0.1 mmol/L.

Question: And the Blood sugar level ([2]; 100 mg/kg intramuscularly, 1 hour)?
Answer: The Blood sugar level was 3.0 ± 0.3 mmol/L.

Question: And the Blood sugar level ([2]; 100 mg/kg intramuscularly, 2 hours)?
Answer: Its Blood sugar level is 2.8 ± 0.1 mmol/L.

Question: What about the Blood sugar level ([2]; 100 mg/kg intramuscularly, 3 hours) of the same molecule?
Answer: The Blood sugar level was 2.5 ± 0.1 mmol/L.

Question: What about the Blood sugar level ([2]; 100 mg/kg intramuscularly, 4 hours) of the same molecule?
Answer: The Blood sugar level was 2.4 ± 0.3 mmol/L.

Question: And the Blood sugar level ([2]; 200 mg/kg intramuscularly, 1 hour)?
Answer: The Blood sugar level was 2.7 ± 0.2 mmol/L.

Question: What about the Blood sugar level ([2]; 200 mg/kg intramuscularly, 2 hours) of the same molecule?
Answer: Its Blood sugar level is 2.6 ± 0.3 mmol/L.

Question: What about the Blood sugar level ([2]; 200 mg/kg intramuscularly, 3 hours) of the same molecule?
Answer: Its Blood sugar level is 2.3 ± 0.2 mmol/L.

Question: And the Blood sugar level ([2]; 200 mg/kg intramuscularly, 4 hours)?
Answer: Its Blood sugar level is 2.1 ± 0.2 mmol/L.

Question: What about the “hypoglycemizing effect (in words)” value ([2]; doses of 5.5 and 11 mg/kg, without the coordination compound) of the same molecule?
Answer: The value was “did not exhibit a hypoglycemizing effect”.

Question: Which results are given for Nc1ncnc2c1ncn2[C@@H]1O[C@H](CO)[C@@H](O)[C@H]1O [adenosine]?
Answer: disturbances of the heart rhythm or stopping of the heart ([3]; rat, in vivo): No disturbances of the heart rhythm or stopping of the heart; size of the infarct zone, % of the size of the anatomical risk zone ([3]; rats, adenosine 0.1 μmol/kg i.v. infusion 30 minutes before coronary occlusion (group 1)): 64.7±3.47%; size of the infarct zone, % of the size of the anatomical risk zone ([3]; rats, adenosine 0.25 μmol/kg i.v. 30 minutes before occlusion (group 2)): 63.1±4.31%; size of the infarct zone, % of the size of the anatomical risk zone ([3]; rats, adenosine 0.5 μmol/kg i.v. 30 minutes before occlusion (group 3)): 62.7±4.11%; size of the infarct zone, % of the size of the anatomical risk zone ([3]; rats, adenosine 1.0 μmol/kg i.v. 30 minutes before occlusion (group 4)): 65.1±4.84%; size of the infarct zone, % of the size of the anatomical risk zone ([3]; rats, adenosine 2.5 μmol/kg i.v. 30 minutes before occlusion (group 5)): 60.9±5.10%; size of the infarct zone, % of the size of the anatomical risk zone ([3]; rats, adenosine 5.0 μmol/kg i.v. 30 minutes before occlusion (group 6)): 35.9±3.59%; size of the infarct zone, % of the size of the anatomical risk zone ([3]; rats, adenosine 10.0 μmol/kg i.v. 30 minutes before occlusion (group 7)): 32.7±3.21%; size of the infarct zone, % of the size of the anatomical risk zone ([3]; rats, adenosine 25.0 μmol/kg i.v. 30 minutes before occlusion (group 8)): 28.2±3.43%; size of the infarct zone, % of the size of the anatomical risk zone ([3]; rats, adenosine 50.0 μmol/kg i.v. 30 minutes before occlusion (group 9)): 26.5±2.87%; reduction of the size of the infarct zone compared with the control, factor ([3]; rats, adenosine groups 6-9 (5.0-50.0 μmol/kg), control 63.8±3.32%): 1.5-2.5
